According to patent publication US11129825B2, “Polysubunit opioid prodrugs resistant to overdose and abuse” (Elysium Therapeutics, Inc., priority 2015, dated 2021):

Experiments:
opioid receptors = details: after oral doses; cited from earlier work
[1] = hydrochloride salt; cited from earlier work
[2] = oral administration; cited from earlier work
trypsin = experiment: Inhibition of trypsin-catalyzed hydrolysis of Nα-Benzoyl-L-arginine 4-nitroanilide hydrochloride in vitro; type: biochemical; details: pH 7.4, 37° C.; for Percent Nα-Benzoyl-L-arginine 4-nitroanilide hydrochloride remaining: trypsin 2,000 BAEE
Method: This example describes in vitro experiments with a compound of the disclosure to provide a mechanism of overdose protection.
The effect of increasing concentrations of compounds 2 and 3 on the rate and extent of the trypsin-catalyzed hydrolysis of a commercially available trypsin substrate Nα-Benzoyl-L-arginine 4-nitroanilide hydrochloride was evaluated in the presence of trypsin (2,000 BAEE activity) in a pH 7.4 phosphate buffer at 37° C. in vitro. Both buffer alone (i.e. no trypsin) and trypsin (i.e. no compound 2 or 3) controls were run contemporaneously.

[3] = Pharmacokinetics of delivered hydrocodone after increasing oral doses in dogs; type: in vivo
Method: The effect of increasing oral doses of compounds 2 and 3 on the pharmacokinetics of delivered hydrocodone (i.e. measured plasma hydrocodone concentrations vs. time) was evaluated in dogs. Specific pharmacokinetics parameters of the delivered opioid were calculated (e.g. Cmax, Tmax, AUC) and are presented below in the Table below.

Structure (SMILES): O=C1CC[C@@]2(O)[C@H]3Cc4ccc(O)c5c4[C@@]2(CCN3CC2CC2)[C@H]1O5 [naltrexone]
- Duration of action (opioid receptors): ~24 h
- Solubility in water [1]: about 100 mg/mL
- Oral bioavailability [2]: 5-40%

Structure (SMILES): COc1ccc2c3c1O[C@H]1C(OC(=O)N4CCC(C(=O)NCCCC[C@H](NC(=O)OCc5ccccc5)C(=O)NCCOc5ccc(C(=O)Oc6ccc7cc(C(=N)N)ccc7c6)cc5)CC4CNC(=O)[C@@H](CCCNC(=N)N)NC(=O)CNC(C)=O)=CC[C@H]4[C@@H](C2)N(C)CC[C@]314 (stereo partly shown) [Compound 2]
- Trypsin inhibition with increasing compound concentration (trypsin; 1 uM to 1 mM, result in words): progressively inhibit trypsin in a concentration dependent manner
- Percent Nα-Benzoyl-L-arginine 4-nitroanilide hydrochloride remaining (trypsin; compound 1 uM, 2 min): 100%
- Percent Nα-Benzoyl-L-arginine 4-nitroanilide hydrochloride remaining (trypsin; compound 1 uM, 13 min): 39%
- Percent Nα-Benzoyl-L-arginine 4-nitroanilide hydrochloride remaining (trypsin; compound 1 uM, 24 min): 0%
- Percent Nα-Benzoyl-L-arginine 4-nitroanilide hydrochloride remaining (trypsin; compound 1 uM, 80 min): 0%
- Percent Nα-Benzoyl-L-arginine 4-nitroanilide hydrochloride remaining (trypsin; compound 1 uM, 102 min): 0%
- Percent Nα-Benzoyl-L-arginine 4-nitroanilide hydrochloride remaining (trypsin; compound 1 uM, 119 min): 0%
- Percent Nα-Benzoyl-L-arginine 4-nitroanilide hydrochloride remaining (trypsin; compound 1 uM, 234 min): 0%
- Percent Nα-Benzoyl-L-arginine 4-nitroanilide hydrochloride remaining (trypsin; compound 10 uM, 2 min): 100%
- Percent Nα-Benzoyl-L-arginine 4-nitroanilide hydrochloride remaining (trypsin; compound 10 uM, 13 min): 98%
- Percent Nα-Benzoyl-L-arginine 4-nitroanilide hydrochloride remaining (trypsin; compound 10 uM, 24 min): 96%
- Percent Nα-Benzoyl-L-arginine 4-nitroanilide hydrochloride remaining (trypsin; compound 10 uM, 80 min): 94%
- Percent Nα-Benzoyl-L-arginine 4-nitroanilide hydrochloride remaining (trypsin; compound 10 uM, 102 min): 93%
- Percent Nα-Benzoyl-L-arginine 4-nitroanilide hydrochloride remaining (trypsin; compound 10 uM, 119 min): 94%
- Percent Nα-Benzoyl-L-arginine 4-nitroanilide hydrochloride remaining (trypsin; compound 10 uM, 234 min): 87%
- Percent Nα-Benzoyl-L-arginine 4-nitroanilide hydrochloride remaining (trypsin; compound 100 uM, 2 min): 100%
- Percent Nα-Benzoyl-L-arginine 4-nitroanilide hydrochloride remaining (trypsin; compound 100 uM, 13 min): 98%
- Percent Nα-Benzoyl-L-arginine 4-nitroanilide hydrochloride remaining (trypsin; compound 100 uM, 24 min): 100%
- Percent Nα-Benzoyl-L-arginine 4-nitroanilide hydrochloride remaining (trypsin; compound 100 uM, 80 min): 99%
- Percent Nα-Benzoyl-L-arginine 4-nitroanilide hydrochloride remaining (trypsin; compound 100 uM, 102 min): 99%
- Percent Nα-Benzoyl-L-arginine 4-nitroanilide hydrochloride remaining (trypsin; compound 100 uM, 119 min): 99%
- Percent Nα-Benzoyl-L-arginine 4-nitroanilide hydrochloride remaining (trypsin; compound 100 uM, 234 min): 99%
- Percent Nα-Benzoyl-L-arginine 4-nitroanilide hydrochloride remaining (trypsin; compound 1 mM, 2 min): 100%
- Percent Nα-Benzoyl-L-arginine 4-nitroanilide hydrochloride remaining (trypsin; compound 1 mM, 13 min): 100%
- Percent Nα-Benzoyl-L-arginine 4-nitroanilide hydrochloride remaining (trypsin; compound 1 mM, 24 min): 99%
- Percent Nα-Benzoyl-L-arginine 4-nitroanilide hydrochloride remaining (trypsin; compound 1 mM, 80 min): 100%
- Percent Nα-Benzoyl-L-arginine 4-nitroanilide hydrochloride remaining (trypsin; compound 1 mM, 102 min): 100%
- Percent Nα-Benzoyl-L-arginine 4-nitroanilide hydrochloride remaining (trypsin; compound 1 mM, 119 min): 100%
- Percent Nα-Benzoyl-L-arginine 4-nitroanilide hydrochloride remaining (trypsin; compound 1 mM, 234 min): 100%
- Release of hydrocodone in vivo with increasing oral doses ([3]; increasing oral doses, dogs, result in words): progressively attenuate the release of hydrocodone in vivo
- AUC0-8 h of hydrocodone in dog plasma ([3]; oral dose 1.66 umol/kg): 7.79 ng·h/mL
- Maximum concentration (Cmax) of hydrocodone in dog plasma ([3]; oral dose 1.66 umol/kg): 2.87 ng/mL HC
- Time of maximum concentration (Tmax) of hydrocodone in dog plasma ([3]; oral dose 1.66 umol/kg): 0.96 h
- AUC0-8 h of hydrocodone in dog plasma ([3]; oral dose 5 umol/kg): 27 ng·h/mL
- Maximum concentration (Cmax) of hydrocodone in dog plasma ([3]; oral dose 5 umol/kg): 6.49 ng/mL HC
- Time of maximum concentration (Tmax) of hydrocodone in dog plasma ([3]; oral dose 5 umol/kg): 1.38 h
- AUC0-8 h of hydrocodone in dog plasma ([3]; oral dose 10 umol/kg): 37.68 ng·h/mL
- Maximum concentration (Cmax) of hydrocodone in dog plasma ([3]; oral dose 10 umol/kg): 8.37 ng/mL HC
- Time of maximum concentration (Tmax) of hydrocodone in dog plasma ([3]; oral dose 10 umol/kg): 2.08 h
- AUC0-8 h of hydrocodone in dog plasma ([3]; oral dose 35 umol/kg): 64.38 ng·h/mL
- Maximum concentration (Cmax) of hydrocodone in dog plasma ([3]; oral dose 35 umol/kg): 11.87 ng/mL HC
- Time of maximum concentration (Tmax) of hydrocodone in dog plasma ([3]; oral dose 35 umol/kg): 2.13 h

Structure (SMILES): C[C@H]1[C@H]2Cc3ccc(O)cc3[C@]1(C)CCN2CC1CC1 [cyclazocine]
- Duration of action (opioid receptors): ~24 h
